Patent US5120758A, “Certain benzodioxole, benzodioxane and benzodioxepin derivatives useful as 5-lipoxygenase inhibitors” (Ciba-Geigy Corporation, priority 1991, dated 1992)
Like-named read-outs stand apart in the source and are kept apart here.

Key:
[1] = molecular target: T1, 5-lipoxygenase (Cavia porcellus, UniProt A0A286X958); assay: Inhibition of 5-HETE and LTB4 synthesis in A-23187-stimulated guinea pig polymorphonuclear leukocytes; type: cell-based
T1 construct: in A-23187-stimulated guinea pig polymorphonuclear leukocytes; endogenous in cells; host or cells: guinea pig polymorphonuclear leukocytes
T1 sequence (A0A286X958 1-674): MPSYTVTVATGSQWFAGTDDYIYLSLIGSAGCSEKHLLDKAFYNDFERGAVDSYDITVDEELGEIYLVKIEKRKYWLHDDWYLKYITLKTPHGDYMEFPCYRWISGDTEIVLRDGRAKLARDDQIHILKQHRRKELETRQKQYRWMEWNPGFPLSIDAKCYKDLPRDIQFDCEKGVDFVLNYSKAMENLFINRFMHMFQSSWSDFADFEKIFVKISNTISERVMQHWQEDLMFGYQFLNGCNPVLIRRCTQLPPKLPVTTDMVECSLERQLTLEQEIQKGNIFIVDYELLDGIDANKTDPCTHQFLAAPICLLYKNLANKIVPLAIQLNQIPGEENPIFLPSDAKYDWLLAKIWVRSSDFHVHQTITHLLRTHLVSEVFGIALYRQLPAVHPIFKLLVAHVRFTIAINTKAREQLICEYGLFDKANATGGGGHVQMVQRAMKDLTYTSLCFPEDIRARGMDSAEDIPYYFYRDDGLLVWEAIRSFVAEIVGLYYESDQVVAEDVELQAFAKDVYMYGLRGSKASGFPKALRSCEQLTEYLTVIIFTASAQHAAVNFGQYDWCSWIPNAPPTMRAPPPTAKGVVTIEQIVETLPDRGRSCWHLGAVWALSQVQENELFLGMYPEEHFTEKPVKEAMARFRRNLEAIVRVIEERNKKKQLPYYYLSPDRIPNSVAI
Procedure: 5-Lipoxygenase inhibition is determined e.g. by measuring the percent inhibition of the synthesis of 5-HETE [(5S)-5-hydroxy-6,8,11,14-eicosa-tetraenoic acid] and leukotriene B4 (LTB4, 5,12-dihydroxy-6,8,10,14-eicosatetraenoic acid) in A-23187-stimulated guinea pig polymorphonuclear leukocytes, essentially according to radiometric thin-layer chromatographic assays described by Walker and Dawson (J. Pharm. Pharmacol. 31: 778, 1979) and Jakschik and Lee (Nature 287: 51, 1980) to measure the formation of 5-HETE and LTB4 -like products from ^14 C-arachidonic acid. IC50 values are determined graphically as the concentration of test compound at which the synthesis of 5-HETE and LTB4 -like products is reduced to 50% of their respective control values.

[2] = test system: 5-lipoxygenase; assay: Ex vivo inhibition of A-23187-stimulated LTB4 formation in whole blood after oral administration; settings: dose of about 1.0 mg/kg p.o. to the dog
Procedure: Furthermore, the inhibition of 5-lipoxygenase is determined after oral or i.v. administration to rats or dogs by measuring ex vivo in whole blood the decrease of A-23187-stimulated LTB4 formation as compared to non-treated control animals.

- IC50 ([1]; read-out: IC50, inhibition of formation of 5-HETE): ~100 nM
- IC50 ([1]; read-out: IC50, inhibition of formation of leukotriene B4 (LTB4)): ~120 nM
Structure (SMILES): NC(=O)N(O)CC1COc2ccc(Oc3ccc(F)cc3)cc2O1 (stereo not drawn) [1(c), 2-(N-aminocarbonyl-N-hydroxy)aminomethyl-7-(4-fluorophenoxy)-1,4-benzodioxane]
- inhibition of LTB4 formation as determined ex vivo [2]: significant inhibition
